We go through 21 compounds from patent publication US20200071310A1, “N-ARYL PYRAZOLES AS NRF2 REGULATORS” (GLAXOSMITHKLINE INTELLECTUAL PROPERTY DEVELOPMENT LIMITED, priority 2016, published 2020).

Each structure is given as a SMILES string. Counter-ions that a name gives are not always drawn.

For the test, the target named is T1, Keap1 (321-609) Kelch domain / TAMRA-labeled NRF2 peptide (ETGE motif) (Homo sapiens, UniProt Q14145).
T1 construct: the Kelch domain (321-609) of Keap1 is used
T1 sequence (Q14145 321-609): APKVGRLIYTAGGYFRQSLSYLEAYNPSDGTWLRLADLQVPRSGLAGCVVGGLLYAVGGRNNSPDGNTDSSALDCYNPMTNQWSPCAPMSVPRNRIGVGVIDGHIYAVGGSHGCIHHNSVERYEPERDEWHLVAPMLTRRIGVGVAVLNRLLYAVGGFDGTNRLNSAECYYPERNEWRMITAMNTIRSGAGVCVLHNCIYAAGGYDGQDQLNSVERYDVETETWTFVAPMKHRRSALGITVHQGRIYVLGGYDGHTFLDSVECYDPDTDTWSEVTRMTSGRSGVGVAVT
The test can be described thus: NRF2-Keap1 FP Assay. The test is classed as binding. The settings on record: Keap1 (321-609) 20 nM, Tamra labeled peptide 8 nM. From the text: One model for the NRF2-Keap1 interaction is through two binding sites in the Neh2 domain on NRF2. The two sites are referred to as the DLG binding motif (latch domain, uM affinity) and the ETGE binding motif (hinge domain, nM affinity). The Keap1 protein consists of an N-terminal region (NTR), a broad complex, tramtrack, and brick a' brac domain (BTB), an intervening region (IVR), a double glycine repeat domain (DGR or Kelch), and a C-terminal region. The DLG and ETGE motifs of NRF2's Neh2 domain bind to the Kelch domain of Keap1 at different affinities. In the Keap1 Kelch fluorescence polarization (FP) assay, a TAMRA-labeled 16mer peptide (AFFAQLQLDEETGEFL) containing the ETGE motif of NRF2 and the Kelch domain (321-609) of Keap1 is used. The assay determines if a compound interferes with the binding between Keap1 […] and the TAMRA-labeled peptide. Binding of TAMRA-labeled NRF2 peptide to Keap1 (321-609) results in a high FP signal. If a compound interferes with the binding between the peptide and the protein, it will cause the assay signal to decrease. Thus, assay signal is inversely proportional to binding inhibition.
100 nl of 100× compound dose response curves (serial 3-fold dilutions) in DMSO were stamped using an Echo liquid handling system (Labcyte) into 384-well low volume black assay plates (Greiner, #784076), with DMSO in columns 6 and 18. The top concentration of compound was located in columns 1 and 13. Keap1 (321-609) was diluted to 40 nM (2×) in 1× assay buffer (50 mM Tris, pH 8.0, 100 mM NaCl, 5 mM MgCl2, 1 mM DTT, 2 mM CHAPS, and 0.005% BSA) and 5 ul was added using a Multidrop Combi (Thermo Electron Corporation) equipped with a metal tip dispenser to all wells of the compound plate, except column 18. Column 18 received only 5 ul of assay buffer. Immediately, 5 uL of 16 nM (2×) of Tamra labeled peptide (AFFAQLQLDEETGEFL, 21st Century Biochemicals) was added to all wells of the plate. The plates were spun at 500 rpm for 1 min, incubated for 1 hr at room temperature, and read on an Analyst GT (Molecular Devices) equipped with excitation (530/25 nm) and emission (580/10 nm) filters designed for Tamra probes. A 561 nm dichroic mirror was also used in the Analyst. The final assay concentrations of Keap1l (321-609) and Tamra labeled peptide were 20 nM and 8 nM, respectively. Fluorescence measurements, represented as mP, were used in the transformation of the data. Compound activity was calculated based on percent inhibition, normalized against controls in the assay (Control 1 contains the Tamra peptide and Keap1 (321-609) together (0% response) and control 2 contains the Tamra peptide alone (100% response)). Data analysis was handled using the software package Abase XE (Surrey, United Kingdom. The % inhibition values were calculated by the equation:
100−(100*((compound response−average control 2)/(average control 1−average control2))).
For calculation of pIC50s, Abase XE used a four parameter equation.
IC50s<1 nM (+++++), IC50s 1 nM-10 nM (++++), IC50s 10-100 nM (+++), IC50s 100 nM-1 μM (++), IC50s 1-10 μM (+), IC50s>10 μM (−), or were not determined (ND).
For orientation: EC50 means the concentration giving half of the maximal effect. A lower EC50 goes with a more potent agent. Consider `COc1ccccc1S(=O)(=O)N(C)Cc1cccc(-n2ncc(C(=O)O)c2[C@@H]2C[C@H]2c2cn(C)nn2)c1` (racemic) [Example 47, 1-(3-((2-methoxy-N-methylphenylsulfonamido)methyl)phenyl)-5-((trans)-2-(1-methyl-1H-1,2,3-triazol-4-yl)cyclopropyl)-1H-pyrazole-4-carboxylic acid], for which the half-maximal effective concentration (EC50) was in the range of 100 to 1000 nM.
Next, `CN(Cc1cccc(-n2ncc(C(=O)O)c2[C@@H]2C[C@H]2c2cn(C)nn2)c1)S(=O)(=O)c1ccccc1` (racemic) [Example 48, 5-((trans)-2-(1-methyl-1H-1,2,3-triazol-4-yl)cyclopropyl)-1-(3-((N-methylphenylsulfonamido)methyl)phenyl)-1H-pyrazole-4-carboxylic acid]: 100 to 1000 nM; `CCCCCCN(Cc1cccc(-n2ncc(C(=O)O)c2[C@@H]2C[C@H]2c2cn(C)nn2)c1)S(=O)(=O)c1ccccc1Oc1ccccc1` (racemic) [Example 49, 1-(3-((N-hexyl-2-phenoxyphenylsulfonamido)methyl)phenyl)-5-((trans)-2-(1-methyl-1H-1,2,3-triazol-4-yl)cyclopropyl)-1H-pyrazole-4-carboxylic acid]: 100 to 1000 nM.
Compound `CCCN(Cc1cccc(-n2ncc(C(=O)O)c2[C@@H]2C[C@H]2c2cn(C)nn2)c1)S(=O)(=O)c1ccccc1C` (racemic) [Example 50, 5-((trans)-2-(1-methyl-1H-1,2,3-triazol-4-yl)cyclopropyl)-1-(3-((2-methyl-N-propylphenylsulfonamido)methyl)phenyl)-1H-pyrazole-4-carboxylic acid] showed a concentration for a half-maximal effect (EC50) of 100 to 1000 nM.
In the case of `CN(Cc1cccc(-n2ncc(C(=O)O)c2[C@@H]2C[C@H]2c2cn(C)nn2)c1)S(=O)(=O)c1cccc2cccnc12` (racemic) [Example 51, 5-((trans)-2-(1-methyl-1H-1,2,3-triazol-4-yl)cyclopropyl)-1-(3-((N-methylquinoline-8-sulfonamido)methyl)phenyl)-1H-pyrazole-4-carboxylic acid], the half-maximal effective concentration (EC50) lay within 100 to 1000 nM.
Next, `COc1ccccc1S(=O)(=O)NCc1cccc(-n2ncc(C(=O)O)c2[C@@H]2C[C@H]2c2cn(C)nn2)c1` (racemic) [Example 52, 1-(3-((2-methoxyphenylsulfonamido)methyl)phenyl)-5-((trans)-2-(1-methyl-1H-1,2,3-triazol-4-yl)cyclopropyl)-1H-pyrazole-4-carboxylic acid]: 100 to 1000 nM; `COc1ccccc1S(=O)(=O)N(Cc1cccc(-n2ncc(C(=O)O)c2[C@@H]2C[C@H]2c2cn(C)nn2)c1)C1CC1` (racemic) [Example 53, 1-(3-((N-cyclopropyl-2-methoxyphenylsulfonamido)methyl)phenyl)-5-((trans)-2-(1-methyl-1H-1,2,3-triazol-4-yl)cyclopropyl)-1H-pyrazole-4-carboxylic acid]: 1000 to 10000 nM; `CCOc1ccc(Br)cc1CN(C)Cc1cccc(-n2ncc(C(=O)O)c2[C@@H]2C[C@H]2c2cn(C)nn2)c1` (racemic) [Example 54, 1-(3-(((5-bromo-2-ethoxybenzyl)(methyl)amino)methyl)phenyl)-5-((trans)-2-(1-methyl-1H-1,2,3-triazol-4-yl)cyclopropyl)-1H-pyrazole-4-carboxylic acid trifluoroacetate]: 100 to 1000 nM.
Next, `CCCCCCN(Cc1cccc(-n2ncc(C(=O)O)c2[C@@H]2C[C@H]2c2cnn(C)c2)c1)S(=O)(=O)c1ccccc1C` (racemic) [Example 56]: 1000 to 10000 nM.
`Cc1cc([C@@H]2C[C@H]2c2c(C(=O)O)cnn2-c2cccc(CN3C[C@@H](C)Cc4cc(C(F)(F)F)ccc4S3(=O)=O)c2)on1` (racemic) [Example 57, 1-(3-(((S)-4-Methyl-1,1-dioxido-7-(trifluoromethyl)-4,5-dihydrobenzo[f][1,2]thiazepin-2(3H)-yl)methyl)phenyl)-5-(trans-2-(3-methylisoxazol-5-yl)cyclopropyl)-1H-pyrazole-4-carboxylic acid] came in with an EC50 of 100 to 1000 nM.
Next, `CCCCCCN(Cc1cccc(-n2ncc(C(=O)O)c2[C@@H]2C[C@H]2c2cn(C)nn2)c1)S(=O)(=O)c1ccc(Oc2ccccc2)cc1` (relative stereo) [Example 36, 1-(3-((N-hexyl-4-phenoxyphenylsulfonamido)methyl)phenyl)-5-((trans)-2-(1-methyl-1H-1,2,3-triazol-4-yl)-cyclopropyl)-1H-pyrazole-4-carboxylic acid]: 10 to 100 nM; `CN(Cc1cccc(-n2ncc(C(=O)O)c2[C@@H]2C[C@H]2c2cn(C)nn2)c1)S(=O)(=O)c1ccccc1Oc1ccccc1` (relative stereo) [Example 38, 5-((trans)-2-(1-methyl-1H-1,2,3-triazol-4-yl)cyclo-propyl)-1-(3-((N-methyl-2-phenoxyphenyl-sulfonamido)-methyl)phenyl)-1H-pyrazole-4-carboxylic acid]: 10 to 100 nM; `CN(Cc1cccc(-n2ncc(C(=O)O)c2[C@@H]2C[C@H]2c2cn(C)nn2)c1)S(=O)(=O)c1ccc(-c2ccccc2)cc1` (relative stereo) [Example 39, 5-((trans)-2-(1-methyl-1H-1,2,3-triazol-4-yl)cyclo-propyl)-1-(3-((N-methyl-[1,1′-biphenyl]-4-ylsulfonamido)-methyl)phenyl)-1H-pyrazole-4-carboxylic acid]: 10 to 100 nM.
Next, `CC(c1cccc(-n2ncc(C(=O)O)c2[C@@H]2C[C@H]2c2cn(C)nn2)c1)N1C[C@@H](C)Cc2ccc(C(F)(F)F)cc2S1(=O)=O` (single isomer, unassigned) [Example 6, 1-(3-((R or S)-1-((S)-4-Methyl-1,1-dioxido-8-(trifluoromethyl)-4,5-dihydrobenzo[f][1,2]thiazepin-2(3H)-yl)ethyl)phenyl)-5-((1R,2R)-2-(1-methyl-1H-1,2,3-triazol-4-yl)cyclopropyl)-1H-pyrazole-4-carboxylic acid]: 1 to 10 nM; `CC[C@@H]1CN(Cc2cccc(-n3ncc(C(=O)O)c3[C@@H]3C[C@H]3c3cn(C)nn3)c2)S(=O)(=O)c2ccccc2O1` [Example 3]: 1 to 10 nM.
Next, `CC[C@H]1Cc2ccccc2S(=O)(=O)N(Cc2cccc(-n3ncc(C(=O)O)c3[C@@H]3C[C@H]3c3cn(C)nn3)c2)C1` [Example 4]: 1 to 10 nM.
Turning to `CC[C@@H]1Cc2ccccc2CN(Cc2cccc(-n3ncc(C(=O)O)c3[C@@H]3C[C@H]3c3cn(C)nn3)c2)C1` [Example 10], the half-maximal effective concentration (EC50) was in the range of 10 to 100 nM.
Next, `CC[C@H]1Cc2ccccc2CN(Cc2cccc(-n3ncc(C(=O)O)c3[C@@H]3C[C@H]3c3cn(C)nn3)c2)C1` [Example 11]: 10 to 100 nM; `CCC1c2ccccc2OC(C)(C)CN1Cc1cccc(-n2ncc(C(=O)O)c2[C@@H]2C[C@H]2c2cn(C)nn2)c1` (stereo partly drawn) [Example 12]: 1000 to 10000 nM; `C[C@H]1Cc2ccccc2S(=O)(=O)N(Cc2cccc(-n3ncc(C(=O)O)c3[C@@H]3C[C@H]3c3cn(C)nn3)c2)C1` [Example 15, 1-(3-(((S)-4-methyl-1,1-dioxido-4,5-dihydrobenzo[f][1,2]thiazepin-2(3H)-yl)methyl)phenyl)-5-((trans)-2-(1-methyl-1H-1,2,3-triazol-4-yl)cyclopropyl)-1H-pyrazole-4-carboxylic acid]: 10 to 100 nM.
With `CC[C@H]1Cc2ccc(C(F)(F)F)cc2S(=O)(=O)N(Cc2cccc(-n3ncc(C(=O)O)c3[C@@H]3C[C@H]3c3cn(C)nn3)c2)C1` [Example 20, 1-(3-(((S)-4-ethyl-1,1-dioxido-8-(trifluoromethyl)-4,5-dihydrobenzo[f][1,2]thiazepin-2(3H)-yl)methyl)phenyl)-5-((1R,2R)-2-(1-methyl-1H-1,2,3-triazol-4-yl)cyclopropyl)-1H-pyrazole-4-carboxylic acid] the figure was under 1 nM.
